Converted amounts (≈) assume the structure as drawn.
Assays:
S. aureus T5595 = experiment: MIC, twofold microdilution, clinical strain; format: cell-based, Staphylococcus aureus; settings: Staphylococcus aureus, T5595, 18 h
E. coli 951 = experiment: MIC, twofold microdilution, clinical strain; format: cell-based; settings: Escherichia coli, 18 h
S. epidermidis 4341 = experiment: MIC, twofold microdilution, clinical strain; format: cell-based; settings: Staphylococcus epidermidis, 18 h
S. aureus ATCC 6538 = experiment: MIC, twofold microdilution, standard strain; format: cell-based, Staphylococcus aureus; settings: Staphylococcus aureus, ATCC6538; standard strain, 18 h
[1] = tested on: S. epidermidis ATCC 12228; experiment: MIC, twofold microdilution, standard strain; format: cell-based; settings: Staphylococcus epidermidis, ATCC12228, 18 h
E. coli 520 = experiment: MIC, twofold microdilution, clinical strain; format: cell-based; settings: Escherichia coli, 18 h
S. aureus 180 = experiment: MIC, twofold microdilution, clinical strain; format: cell-based; settings: Staphylococcus aureus, 18 h
S. aureus T5591 = experiment: MIC, twofold microdilution, clinical strain; format: cell-based, Staphylococcus aureus; settings: Staphylococcus aureus, T5591, 18 h
S. epidermidis KR4243/1 = experiment: MIC, twofold microdilution, clinical strain; format: cell-based; settings: Staphylococcus epidermidis, 18 h
S. aureus ATCC 29213 = experiment: MIC, twofold microdilution, standard strain; format: cell-based; settings: Staphylococcus aureus, ATCC29213, 18 h
E. coli 600 = experiment: MIC, twofold microdilution, clinical strain; format: cell-based, Escherichia coli; settings: Escherichia coli, 600, 18 h
PC3 cells = experiment: MTT assay, cytotoxic activity; format: cell-based, human; settings: Homo sapiens, PC-3, 72 h, MTT, 72 h
Procedure: Metastatic prostate cancer (PC3) and human immortal keratinocyte (HaCaT) cell lines were purchased from the American Type Culture Collection (ATCC, Rockville, MD, USA) and cultured in MEM (minimal essential medium, Thermo Sci, USA), RPMI 1640 (Roswell Park Memorial Institute, Biowest SAS, France), and DMEM (Dulbecco’s Modified Eagle’s Medium, Biowest SAS, France). Cells were seeded in 6 mL medium in a tissue culture flask (50 mL) in a 37 °C/5% CO2 humidified incubator. […] MTT analysis was performed according to a previous study.[59] Untreated cells were used as controls. Cell absorbance results were inserted into the formula for the relative MTT level (%). It allows to calculate the viability of cells under the influence of the tested compounds. Cell viability was expressed as the percentage of MTT reduction in cells treated with tested compounds compared to the control sample. The relative MTT level was calculated using the formula [100%] = A/B × 100% where A—the test sample absorbance and B—the control sample absorbance.

S. pasteuri KR 4358 = experiment: MIC, twofold microdilution, clinical strain; format: cell-based; settings: Staphylococcus pasteuri, KR4358, 18 h
S. epidermidis 5253 = experiment: MIC, twofold microdilution, clinical strain; format: cell-based, Staphylococcus epidermidis; settings: Staphylococcus epidermidis, 5253, 18 h
P. aeruginosa ATCC 15442 = experiment: MIC, twofold microdilution, standard strain; format: cell-based, Pseudomonas aeruginosa; settings: Pseudomonas aeruginosa, ATCC15442; standard strain, 18 h
S. aureus NCTC 4163 = experiment: MIC, twofold microdilution, standard strain; format: cell-based; settings: Staphylococcus aureus, NCTC4163, 18 h
K. pneumoniae 510 = experiment: MIC, twofold microdilution, clinical strain; format: cell-based, Klebsiella pneumoniae; settings: Klebsiella pneumoniae, 510; clinical strain, 18 h
E. coli ATCC 25922 = experiment: MIC, twofold microdilution, standard strain; format: cell-based, Escherichia coli; settings: Escherichia coli, ATCC25922; standard strain, 18 h
[2] = MTT assay, cytotoxic activity; format: cell-based; settings: human, HaCaT cells (immortal keratinocytes); MTT, 72 h, normal cell line; read-out: IC50 HaCaT
Procedure: Cells were seeded in 6 mL medium in a tissue culture flask (50 mL) in a 37 °C/5% CO2 humidified incubator. […] MTT analysis was performed according to a previous study.[59] Untreated cells were used as controls. Cell absorbance results were inserted into the formula for the relative MTT level (%). It allows to calculate the viability of cells under the influence of the tested compounds. Cell viability was expressed as the percentage of MTT reduction in cells treated with tested compounds compared to the control sample. The relative MTT level was calculated using the formula [100%] = A/B × 100% where A—the test sample absorbance and B—the control sample absorbance.

E. cloacae 8 = experiment: MIC, twofold microdilution, clinical strain; format: cell-based, Escherichia cloacae; settings: Enterobacter cloacae, 8; clinical strain, 18 h
S. aureus 5595 = experiment: MIC, twofold microdilution, clinical strain; format: cell-based; settings: Staphylococcus aureus, 18 h
P. aeruginosa 659 = experiment: MIC, twofold microdilution, clinical strain; format: cell-based; settings: Pseudomonas aeruginosa, 18 h
[3] = tested on: M. tuberculosis Spec. 192; experiment: Tuberculostatic activity, Microplate Alamar Blue Assay (MIC); format: cell-based; settings: Mycobacterium tuberculosis, MABA, read-out: MIC M. tuberculosis Spec. 192 (sensitive to tuberculostatics)
P. aeruginosa 37 = experiment: MIC, twofold microdilution, clinical strain; format: cell-based; settings: Pseudomonas aeruginosa, 18 h
S. aureus ATCC 25923 = experiment: MIC, twofold microdilution, standard strain; format: cell-based; settings: Staphylococcus aureus, ATCC25923, 18 h
M. tuberculosis H37Rv = experiment: Tuberculostatic activity, Microplate Alamar Blue Assay (MIC); format: cell-based, Mycobacterium tuberculosis; settings: Mycobacterium tuberculosis, H37RV; MABA; read-out: MIC M. tuberculosis H37Rv
[4] = tested on: S. epidermidis ATCC 35984; experiment: MIC, twofold microdilution, standard strain; format: cell-based; settings: Staphylococcus epidermidis, ATCC35984, 18 h
K. pneumoniae 28 = experiment: MIC, twofold microdilution, clinical strain; format: cell-based; settings: Klebsiella pneumoniae, 18 h
M. tuberculosis Spec 210 = experiment: microbe, parasite or virus in culture; format: cell-based, Mycobacterium tuberculosis; settings: M. tuberculosis Spec. 210
[5] = tested on: Staphylococci (standard strains); experiment: MIC, standard Gram-positive strains as a panel; format: cell-based, S. aureus, S. epidermidis; settings: standard Gram-positive strains of Table 1; read-out: MIC toward standard Staphylococci (range over strains)
[6] = tested on: clinical bacterial strains; experiment: MIC, clinical isolates as groups of strains; format: cell-based

| Structure (SMILES) | MIC (S. aureus T5595) [µg/mL] | MIC (E. coli 951) [µg/mL] | MIC (S. epidermidis 4341) [µg/mL] | MIC (S. aureus ATCC 6538) [µg/mL] | MIC [1] [µg/mL] | MIC (E. coli 520) [µg/mL] | MIC (S. aureus 180) [µg/mL] | MIC (S. aureus T5591) [µg/mL] | MIC (S. epidermidis KR4243/1) [µg/mL] | MIC (S. aureus ATCC 29213) [µg/mL] | MIC (E. coli 600) [µg/mL] | IC50 (PC3 cells) [µM] | MIC (S. pasteuri KR 4358) [µg/mL] | MIC (S. epidermidis 5253) [µg/mL] | MIC (P. aeruginosa ATCC 15442) [µg/mL] | MIC (S. aureus NCTC 4163) [µg/mL] | MIC (K. pneumoniae 510) [µg/mL] | MIC (E. coli ATCC 25922) [µg/mL] | IC50 at 72 h [2] [µM] | MIC (E. cloacae 8) [µg/mL] | other results |
| --- | --- | --- | --- | --- | --- | --- | --- | --- | --- | --- | --- | --- | --- | --- | --- | --- | --- | --- | --- | --- | --- |
| O=C(O)c1cn(C2CC2)c2cc(N3CCN(C(=O)CCCCCCCCCCBr)CC3)c(F)cc2c1=O [Compound 13, 7-[4-(11-Bromoundekanoyl)-piperazin-1-yl]-1-cyclopropyl-6-fluoro-4-oxo-1,4-dihydro-quinoline-3-carboxylic Acid] | > 25.6 | > 25.6 | > 25.6 | 12.8 (≈ 22.1 µM) | 12.8 (≈ 22.1 µM) | > 25.6 | > 25.6 | > 25.6 | > 25.6 | 12.8 (≈ 22.1 µM) | > 25.6 | 33.7 ± 8.2 | > 25.6 | > 25.6 | > 25.6 | 6.4 (≈ 11.1 µM) | > 25.6 | 25.6 (≈ 44.3 µM) | 93.4 ± 10.1 | > 25.6 | MIC (S. aureus 5595): > 25.6 µg/mL; MIC (P. aeruginosa 659): > 25.6 µg/mL; MIC [3]: 4 µg/mL (≈ 6.91 µM); MIC (P. aeruginosa 37): > 25.6 µg/mL; MIC (S. aureus ATCC 25923): 12.8 µg/mL (≈ 22.1 µM); MIC (M. tuberculosis H37Rv): 2 µg/mL (≈ 3.46 µM); MIC [4]: 12.8 µg/mL (≈ 22.1 µM); MIC (K. pneumoniae 28): > 25.6 µg/mL; fold more effective than the reference tuberculostatics (M. tuberculosis Spec 210): 8–32 fold |
| O=C(O)c1cn(C2CC2)c2cc(N3CCN(C(=O)CCCC(F)(F)F)CC3)c(F)cc2c1=O [Compound 16, 7-[4-(5,5,5-Trifluoropentanoyl)-piperazin-1-yl]-1-cyclopropyl-6-fluoro-4-oxo-1,4-dihydro-quinoline-3-carboxylic Acid] | 0.4 (≈ 0.852 µM) | > 25.6 | 25.6 (≈ 54.5 µM) | 0.2 (≈ 0.426 µM) | 0.2 (≈ 0.426 µM) | 3.2 (≈ 6.82 µM) | 1 (≈ 2.13 µM) | 0.4 (≈ 0.852 µM) | 0.4 (≈ 0.852 µM) | 0.2 (≈ 0.426 µM) | 6.4 (≈ 13.6 µM) | 68.8 ± 9.9 | 0.4 (≈ 0.852 µM) | > 25.6 | 1 (≈ 2.13 µM) | 0.2 (≈ 0.426 µM) | > 25.6 | 1.6 (≈ 3.41 µM) | > 100 | 8 (≈ 17 µM) | MIC [5]: 0.2 µg/mL (≈ 0.426 µM); share of the reference (CP) activity ([6]; S. aureus T5595 and T5591): 62.5%; MIC (S. aureus 5595): 1 µg/mL (≈ 2.13 µM); MIC (P. aeruginosa 659): > 25.6 µg/mL; MIC [3]: 64 µg/mL (≈ 136 µM); MIC (P. aeruginosa 37): > 25.6 µg/mL; MIC (S. aureus ATCC 25923): 0.2 µg/mL (≈ 0.426 µM); MIC (M. tuberculosis H37Rv): 64 µg/mL (≈ 136 µM); MIC [4]: 0.2 µg/mL (≈ 0.426 µM); MIC (K. pneumoniae 28): > 25.6 µg/mL |
| O=C(O)c1cn(C2CC2)c2cc(N3CCN(CCCC(=O)N4CCN(c5cc6c(cc5F)c(=O)c(C(=O)O)cn6C5CC5)CC4)CC3)c(F)cc2c1=O [Compound 18, CP–Butyryl–CP Dimer] | 6.4 (≈ 8.76 µM) | 6.4 (≈ 8.76 µM) | > 25.6 | 2 (≈ 2.74 µM) | 1 (≈ 1.37 µM) | 1.6 (≈ 2.19 µM) | 6.4 (≈ 8.76 µM) | 6.4 (≈ 8.76 µM) | 3.2 (≈ 4.38 µM) | 4 (≈ 5.47 µM) | 0.4 (≈ 0.547 µM) | > 100 | 3.2 (≈ 4.38 µM) | > 25.6 | 4 (≈ 5.47 µM) | 2 (≈ 2.74 µM) | > 25.6 | 16 (≈ 21.9 µM) | 92.2 ± 8.7 | 0.8 (≈ 1.09 µM) | MIC ([6]; clinical strains, read-out: MIC against selected E. coli and E. cloacae strains): 0.1 to 0.8 µg/mL (≈ 0.137 to 1.09 µM); MIC (S. aureus 5595): 6.4 µg/mL (≈ 8.76 µM); MIC (P. aeruginosa 659): > 25.6 µg/mL; MIC [3]: 16 µg/mL (≈ 21.9 µM); MIC (P. aeruginosa 37): 12.8 µg/mL (≈ 17.5 µM); MIC (S. aureus ATCC 25923): 4 µg/mL (≈ 5.47 µM); MIC (M. tuberculosis H37Rv): 8 µg/mL (≈ 10.9 µM); MIC [4]: 16 µg/mL (≈ 21.9 µM); MIC (K. pneumoniae 28): > 25.6 µg/mL; fold more effective than the reference tuberculostatics (M. tuberculosis Spec 210): 2–8 fold |
